Experimental data as given in patent US20130123201A1, “MODULATION OF CYTOKINE-INDUCED CHRONIC INFLAMMATORY RESPONSES” (UNIVERSITY OF MANITOBA, priority 2010, published 2013).
“And” between values parts separate entries of the source, which are not always exact repeats. Equal entries are not always repeated.

Legend:
[1] = test system: phospho-DAPK (Ser308); assay: Immunoblot with phospho-DAPK (Ser308) antibody; format: cell-based, human; details: within 15 min, compared to un-stimulated cells
Experimental: Immunoblots: Cell lysates were prepared in lysis buffer containing 20 mM Tris-HCl pH 7.5, 150 mM NaCl, 1 mM EDTA, 1 mM EGTA, 1 mM sodium fluoride, 1 mM sodium orthovanadate, 2.5 mM sodium pyrophosphate, protease inhibitor cocktail (Sigma-Aldrich) and 1% (v/v) Triton X-100. The lysates were electrophoretically resolved on a 4-12% NuPAGE® Bis-Tris gels (Invitrogen Corporation, Burlington, ON, Canda), followed by transfer to nitrocellulose membranes (Millipore, Canada). The membranes were subsequently probed with either phospho-p300 (Ser1834) polyclonal antibody, monoclonal antibody against phospho-DAPK (Ser308) or monoclonal antibody to glyceraldehyde-3-phosphate dehydrogenase (GAPDH) in TBST (20 mM Tris pH 7.5, 150 mM NaCl, 0.1% Tween 20) containing 5% skimmed milk powder. Affinity purified HRP-linked horse anti-mouse or goat anti-rabbit antibodies were used for detection as required. The membranes were development with Amersham ECL detection system (GE Healthcare, Baie d'Urfe QC, Canada) according to the manufacturer's instructions.
Immunoblots: Cell lysates were prepared in lysis buffer containing 20 mM Tris-HCl pH 7.5, 150 mM NaCl, 1 mM EDTA, 1 mM EGTA, 1 mM sodium fluoride, 1 mM sodium orthovanadate, 2.5 mM sodium pyrophosphate, protease inhibitor cocktail (Sigma-Aldrich Canada Inc.) and 1% (v/v) Triton X-100. […]

[2] = test system: Human macrophage-like THP-1 cells; assay: Kinome profiling with peptide arrays of kinase phosphorylation targets; format: cell-based; details: cytokine 20 ng/mL, 15 min, relative to un-stimulated control cells
Experimental: Kinome profiling: Human monocytic THP-1 cells were differentiated to plastic-adherent macrophage-like cells by treatment with PMA as described above, the cells were rested for 24 hr and then stimulated with either IL-32 (20 ng/mL) or IL-17 (20 ng/mL) for 15 min.
Subsequently, cellular lysates were prepared in lysis buffer (containing 20 mM Tris-HCl pH 7.5, 150 mM NaCl, 1 mM EDTA, 1 mM EGTA, 1 mM sodium fluoride, 1 mM sodium orthovanadate, 2.5 mM sodium pyrophosphate, protease inhibitor cocktail (Sigma-Aldrich) and 1% (v/v) Triton X-100, as taught by Jalal et al. (2009, Genome to kinome: species-specific peptide arrays for kinome analysis. Sci. Signal 2:11). Peptide arrays representing phosphorylation targets of kinase activity were incubated with the cellular lysates for quantifying global kinase activity following the methods disclosed by Jalal et al. (2009). The trends of protein phosphorylation events upon stimulation with IL-32 and IL-17 were comprehensively analysed after normalization and background correction of signal strength following the methods disclosed by Jalal et al. (2009). The phosphorylations of the peptides on the array were quantitated in the cytokine-treated cells relative to the un-stimulated control cells.
Kinome profiling: Human macrophage-like THP-1 cells were differentiated to plastic-adherent macrophage-like cells by treatment with PMA as described above, after which the cells were rested for 24 hr and then stimulated with either IL-32 (20 ng/mL) or IL-17 (20 ng/mL) for 15 min. Subsequently, cellular lysates were prepared in lysis buffer (containing 20mM Tris-HCl pH 7.5, 150 mM NaCl, 1 mM EDTA, 1 mM EGTA, 1 mM sodium fluoride, 1 mM sodium orthovanadate, 2.5 mM sodium pyrophosphate, protease inhibitor cocktail (Sigma-Aldrich Canada Inc.) and 1% (v/v) Triton X-100, as taught by Mookherjee et al. (2006). Peptide arrays representing phosphorylation targets of kinase activity were incubated with the cellular lysates for quantifying global kinase activity as taught by Jalal et al. (2009, Genome to kinome: species-specific peptide arrays for kinome analysis. Sci. Signal 2:11). The trends of protein phosphorylation events upon stimulation with IL-32 and IL-17 were comprehensively analysed after normalization and background correction of signal strength as taught by Jalal et al. (2009). The phosphorylations of the peptides on the array were quantitated in the cytokine-treated cells relative to the un-stimulated control cells.
Differential phosphorylation events in THP-1 cells stimulated by IL-32 and IL-17: THP-1 cells were stimulated with either IL-17 (20 ng/ml) or IL-32 (20 ng/ml) for 15 min. The cellular lysates were incubated with peptide arrays representing phosphorylation targets of kinase activity for quantifying global kinase activity as previously described. The phosphorylation of the peptides on the array were quantitated in the cytokine-treated cells relative to the un-stimulated control cells after normalization and background correction of signal strength taught by Jalal et al. (2009).

IL-17: Recombinant human cytokine IL-17A/F from eBioscience, used as stimulant
Phosphorylation of DAPK (Ser308) by immunoblot [1]: increased phosphorylation
Relative Fold change in phosphorylation, APE1 (P27695) S289 [2]: 1.52 fold and 1.28 fold
Relative Fold change in phosphorylation, Akt1 (P31749) S124/9 [2]: −3.27 fold
Relative Fold change in phosphorylation, CCR5 (P51681) S336/7 [2]: −2.62 fold
Relative Fold change in phosphorylation, CTNNB1 (P35222) T41/45 [2]: −4.12 fold
Relative Fold change in phosphorylation, DAPK1 (P53355) S308 [2]: 2.19 fold and 1.45 fold
Relative Fold change in phosphorylation, Daxx (Q9UER7) S668/71 [2]: −3.45 fold
Relative Fold change in phosphorylation, Grb10 (Q13322) S150 [2]: −1.86 fold
Relative Fold change in phosphorylation, Kit (P10721) Y721 [2]: −1.75 fold
Relative Fold change in phosphorylation, NFAT4 (Q12968) S163/5 [2]: −2.22 fold
Relative Fold change in phosphorylation, PKACa (P17612) S338 [2]: −1.64 fold
Relative Fold change in phosphorylation, STAT6 (P42226) Y641 [2]: −1.94 fold
Relative Fold change in phosphorylation, Smad3 (P84022) S422/3/5 [2]: −2.37 fold
Relative Fold change in phosphorylation, TAK1 (O43318) T184 [2]: −2.01 fold
Relative Fold change in phosphorylation, axin-1 (O15169) S486 [2]: −3.73 fold
Relative Fold change in phosphorylation, p53 (P04637) S6/9 [2]: −2.43 fold
Relative Fold change in phosphorylation, p300 (Q09472) S1834 [2]: 1.92 fold and 1.71 fold
